In article PMC11673488, “Enzyme Inhibitory, Physicochemical, and Phytochemical Properties and Botanical Sources of Honey, Bee Pollen, Bee Bread, and Propolis Obtained from the Same Apiary” (Antioxidants, 2024):
Structures can show the parent of a compound that is named as a salt.

Columns and labels:
Type in all cases: biochemical
[1] = tested on: T1, adenosine deaminase (ADA); assay: ADA assay (Blum and Schwedt); conditions: inhibitor in […] ethanol; unreliable (extrapolated beyond highest tested […])
T1 construct: method of Blum and Schwedt
Description: ADA assay (Blum and Schwedt) on adenosine deaminase (ADA)

[2] = target: T2, neuraminidase; assay: neuraminidase assay (Myers et al.); conditions: inhibitor in […] ethanol
T2 construct: gene nanI; method of Myers et al
Description: neuraminidase assay (Myers et al.) on neuraminidase

[3] = target: T3, lipase; assay: p-nitrophenyl caprate hydrolysis; conditions: substrate p-nitrophenyl caprate; inhibitor in […] ethanol
T3 construct: gene PNLIP; p-nitrophenyl caprate assay
Description: p-nitrophenyl caprate hydrolysis on lipase

SMILES: CCCCCC[C@H]([C@H](C)O)n1cnc2c(N)ncnc21 [EHNA.HCl]
- Adenosine Deaminase / IC50 (mg/mL) * [1]: 0.61 ± 0.05 mg/mL

SMILES: O=c1c(O)c(-c2ccc(O)c(O)c2)oc2cc(O)cc(O)c12 [Quercetin dihydrate]
- Neuraminidase / IC50 (mg/mL) * [2]: 0.00035 ± 0.00005 mg/mL

SMILES: CCCCCCCCCCC[C@@H](C[C@@H]1OC(=O)[C@H]1CCCCCC)OC(=O)[C@H](CC(C)C)NC=O [Orlistat]
- Lipase / IC50 (mg/mL) * [3]: 0.00245 ± 0.00010 mg/mL
